Results from patent US9145415B2, “Nitrogen-containing heterocyclic compound or salt thereof” (FUJIFILM Corporation, priority 2012, dated 2015).
Like-named read-outs stand apart in the source and are kept apart here.

Columns and labels:
MV4-11 cells = experiment: Leukemia cell proliferation inhibition test (ATPlite), MV4-11; assay type: cell-based; conditions: Homo sapiens, read-out: MV4-11 cell proliferation inhibition effect
How it was run: (§1)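 72 h proliferation, 37° C/5% CO2; 10,000 cells/well, RPMI/10% FBS; ATPlite luminescence (RLU); 0.1% DMSO taken as 0% inhibition; GI50 via sigmoid fit, n=2.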

Molm-13 cells = experiment: Leukemia cell proliferation inhibition test (ATPlite), Molm-13; assay type: cell-based; conditions: Homo sapiens, read-out: MOLM13 cell proliferation inhibition effect
How it was run: as §1

[1] = target: T1, human FLT3 protein (FLT3 (WT)) (Homo sapiens, UniProt P36888); experiment: FLT3 inhibition test (FLT3 enzyme inhibition, time-resolved fluorescence of substrate peptide phosphorylation); assay type: biochemical; conditions: read-out: FLT3 (WT) enzyme inhibition activity
T1 construct: human FLT3 protein (intracellular region, 564 to 993 aa); GST; purchased Carna Biosciences; host or cells: baculovirus expression system
T1 sequence (P36888 564-993): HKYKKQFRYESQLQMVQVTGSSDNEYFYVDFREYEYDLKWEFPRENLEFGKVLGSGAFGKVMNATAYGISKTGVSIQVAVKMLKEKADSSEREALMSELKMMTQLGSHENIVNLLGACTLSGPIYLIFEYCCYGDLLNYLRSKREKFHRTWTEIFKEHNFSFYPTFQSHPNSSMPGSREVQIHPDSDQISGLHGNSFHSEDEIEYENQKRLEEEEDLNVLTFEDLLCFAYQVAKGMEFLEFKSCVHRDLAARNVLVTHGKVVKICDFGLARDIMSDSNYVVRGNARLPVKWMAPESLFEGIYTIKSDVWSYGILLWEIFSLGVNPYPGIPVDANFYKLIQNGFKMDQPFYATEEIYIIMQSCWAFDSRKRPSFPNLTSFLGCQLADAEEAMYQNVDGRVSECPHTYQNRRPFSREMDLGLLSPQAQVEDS
How it was run: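 Substrate peptide phosphorylation detected by time-resolved fluorescence after a 30 min kinase reaction at 25° C with 50 μM ATP (final). Beforehand, compound and FLT3 (WT, 1.2 μg) stood 15 min at 25° C in HEPES buffer pH 7.5 containing MgCl2, NaCl, BSA and DTT.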

[2] = MV4-11, 72 h, MV4-11, 72 hours culture, ATPlite, GI50 per method
[3] = MOLM-13, 72 h, Molm-13, 72 hours culture, ATPlite, GI50 per method
[4] = GST-fused human FLT3 (564 to 993 aa), ATP 50 μM

For `Cc1ccc(Nc2nc(Nc3ccc(C#N)cc3)ncc2C#CCCCNC(=O)[C@H](C)N(C)C(=O)/C=C/CN(C)C)cc1` [Compound 10-23], which IC50 (MV4-11 cells; [2]) is on record?
The IC50 was < 10 nM.

What about the IC50 (Molm-13 cells; [3]) of the same molecule?
Its IC50 is < 10 nM.

And the IC50 [1, 4]?
Its IC50 is < 10 nM.

What does the source list for `C=CC(=O)N(C)CC(=O)NCCCNC(=O)c1cnc(Nc2ccc(C(N)=O)cc2)nc1NCCC` [Compound 5-2]?
IC50 (MV4-11 cells; [2]): 10 to 100 nM; IC50 (Molm-13 cells; [3]): 10 to 100 nM; IC50 [1, 4]: < 10 nM

For `CCCNc1nc(NCCc2ccncc2)ncc1C(=O)Nc1ccc(OC)c(NC(=O)CN(C)C(=O)/C=C/CN(C)C)c1` [Compound 1-10], which IC50 (MV4-11 cells; [2]) is on record?
The IC50 was < 10 nM.

And the IC50 (Molm-13 cells; [3])?
Its IC50 is < 10 nM.

And the IC50 [1, 4]?
Its IC50 is < 10 nM.

What does the source list for `COCCCNc1nc(Nc2ccc3cnn(C)c3c2)ncc1C#CCCCNC(=O)[C@H](C)N(C)C(=O)/C=C/CN(C)C` [Compound 10-59]?
IC50 (MV4-11 cells; [2]): < 10 nM; IC50 (Molm-13 cells; [3]): < 10 nM; IC50 [1, 4]: < 10 nM

Which results are given for `CCCNc1nc(Nc2ccnc(F)c2)ncc1C#CCCCNC(=O)[C@H](C)N(C)C(=O)/C=C/CN(C)C` [Compound 9-13, (S,E)-4-(Dimethylamino)-N-(1-((5-(2-((2-fluoropyridin-4-yl)amino)-4-(propylamino)pyrimidin-5-yl)-4-pentyn-1-yl)amino)-1-oxopropan-2-yl)-N-methyl-2-butenamide]?
IC50 (MV4-11 cells; [2]): < 10 nM; IC50 (Molm-13 cells; [3]): < 10 nM; IC50 [1, 4]: < 10 nM

With `C[C@@H](C(=O)NCCCC#Cc1cnc(Nc2cccc(F)c2)nc1NCCC#N)N(C)C(=O)/C=C/CN(C)C` [Compound 10-8] as the molecule, how does the IC50 (MV4-11 cells; [2]) read?
The IC50 was < 10 nM.

And the IC50 (Molm-13 cells; [3])?
Its IC50 is 10 to 100 nM.

And the IC50 [1, 4]?
The IC50 was < 10 nM.

What does the source list for `CCCNc1nc(Nc2ccc3c(c2)c(OC)nn3CCOC)ncc1C#CCCCNC(=O)[C@H](C)N(C)C(=O)/C=C/CN(C)C` [Compound 22-14]?
IC50 (MV4-11 cells; MV4-11, MV4-11 cell): < 10 nM; IC50 (Molm-13 cells; MOLM-13, MOLM13 cell): < 10 nM; IC50 ([1]; FLT3 (WT)): < 10 nM

For `CCCNc1nc(Nc2cccc(F)c2)ncc1-c1cc(CCNC(=O)[C@H](C)N(C)C(=O)/C=C/CN(C)C)no1` [Compound 17-1, (S,E)-4-(dimethylamino)-N-(1-((2-(5-(2-((3-fluorophenyl)amino)-4-(propylamino)pyrimidin-5-yl)isoxazol-3-yl)ethyl)amino)-1-oxopropan-2-yl)-N-methyl-2-butenamide], which IC50 (MV4-11 cells; [2]) is on record?
The IC50 was < 10 nM.

What about the IC50 (Molm-13 cells; [3]) of the same molecule?
The IC50 was < 10 nM.

And the IC50 [1, 4]?
Its IC50 is < 10 nM.

Which results are given for `CCCNc1nc(Nc2ccc(F)nc2)ncc1C#C[C@@H]1CCC[C@H](NC(=O)[C@H](C)N(C)C(=O)/C=C/CN(C)C)C1` [Compound 13-5]?
IC50 (MV4-11 cells; [2]): < 10 nM; IC50 (Molm-13 cells; [3]): < 10 nM; IC50 [1, 4]: < 10 nM

Which results are given for `CCNc1nc(Nc2ccc3[nH]ncc3c2)ncc1C#CCCCNC(=O)[C@H](C)N(C)C(=O)/C=C/CN(C)C` [Compound 10-61]?
IC50 (MV4-11 cells; [2]): < 10 nM; IC50 (Molm-13 cells; [3]): < 10 nM; IC50 [1, 4]: < 10 nM

`CC(C)CN(C)c1nc(Nc2ccc(C#N)cc2)ncc1C#CCCCNC(=O)[C@H](C)N(C)C(=O)/C=C/CN(C)C` [Compound 10-15] was tested. Which IC50 (MV4-11 cells; [2]) did it give?
Its IC50 is < 10 nM.

What about the IC50 (Molm-13 cells; [3]) of the same molecule?
The IC50 was < 10 nM.

And the IC50 [1, 4]?
Its IC50 is < 10 nM.

Which IC50 (MV4-11 cells; [2]) does the source give for `CCCNc1nc(Nc2ccc(C(N)=O)cc2)ncc1C(=O)Nc1cccc(NC2CCN(C(=O)/C=C/CN(C)C)C2)c1` (stereo not drawn) [Compound 3-20] here?
The IC50 was 10 to 100 nM.

And the IC50 (Molm-13 cells; [3])?
Its IC50 is 100 to 1000 nM.

What about the IC50 [1, 4] of the same molecule?
Its IC50 is < 10 nM.

`CCCNc1nc(Nc2cccc(F)c2)ncc1C#CCCCNC(=O)[C@H](C(C)CC)N(C)C(=O)/C=C/CN(C)C` (stereo partly drawn) [Compound 7-12] was tested. Which IC50 (MV4-11 cells; [2]) did it give?
The IC50 was 100 to 1000 nM.

And the IC50 (Molm-13 cells; [3])?
The IC50 was 100 to 1000 nM.

What about the IC50 [1, 4] of the same molecule?
The IC50 was 10 to 100 nM.
